Experimental data as given in patent publication US4237273A, “Bis(nitrosoureido)-polyol derivatives” (Richter Gedeon Vegyeszeti Gyar RT, priority 1977, dated 1980).
Where two headings read alike, the source gives them in different places.

Key:
[1] = Acute toxicity (LD50), 21 days observation; assay type: in vivo; conditions: mouse, in vivo, BDF1 mice of both sexes
Description: Species: BDF1 mice of both sexes
Treatment: a volume of 0.2 ml./10 g. body weight of a suspension of the tested compounds in water containing 2% of Tween-80 was used.
Number of animals: 10/dose
Observation time: 21 days

Yoshida s.c. sarcoma = assay: Antitumour activity, Yoshida s.c. sarcoma, tumour weight (Table 3); assay type: in vivo, CFY rats; conditions: from the 2nd day
Description: (§1) The leukemia and ascites type tumours were transplanted intraperitoneally, using an amount of 10^5 -10^7 cells, while in the case of solid tumours, small pieces of tumours were implanted subcutaneously with a trocar. Treatment:
(§2) Mice were treated with a volume of 0.1 ml./10 g. body-weight of a suspension of the tested compounds in water containing 2% of Tween-80, while rats were treated with a volume of 0.1 ml./100 g. bodyweight of a suspension of the tested compounds in water containing 5% of Tween-80.
(§3) In the case of solid tumours (Harding-Passey melanoma, S-180 and Yoshida sarcoma) the tumours were removed on the 8 to 14th day, and the inhibition was calculated by the weight of the tumours, using the following formula: [formula]

Rausher leukemia = assay: Antitumour activity, Rauscher leukemia, spleen weight (Table 3); assay type: in vivo, CFLP mice; conditions: from the 2nd day
Description: as §1, §2, §3
A similar method was applied in the case of the Rauscher leukemia too, but the weight of the spleen was taken, instead of the tumour, in the formula mentioned above.

Harding-Passey melanoma = assay: Antitumour activity, Harding-Passey melanoma, tumour weight (Table 3); assay type: in vivo, CFLP mice; conditions: from the 4th day after transplantation
Description: as §1, §2, §3

[2] = tested on: Developed Yoshida s.c. sarcoma; assay: Recovery from developed Yoshida s.c. sarcoma, treated on 6th day (Table 4); assay type: in vivo, CFY rats; conditions: for Recovery (90 day survival): 30 mg./kg. 1× i.p. on 6th day, animals recovered/treated
Description: as §1, §2
(§4) Recovery=90 days of tumour free life after transplantation.

[3] = tested on: Ehrlich ascites carcinoma; assay: Way of activity: mitosis index in Ehrlich ascites carcinoma; assay type: in vivo, Mice; conditions: i.p. on 6th day, equitoxic doses
Description: (§5) Mice, being infected with Ehrlich ascites carcinoma, were treated intraperitoneally on the 6th day after transplantation with equitoxic doses of compounds 1, 2 and 6. The duration of the activity was investigated by determining the total cell number and the way of action by determining the mitosis index* and the thymidine index**. It could be shown that both compounds 1 and 2 inhibit the increase of the total cell number for 35 days, while a similar inhibition of the reference compound 6 lasts only for 17 days. As far as the quality of the activity is concerned, compounds 1 and 2 decrease the mitosis-index and the thymidine index in 24 hours by 90%, while in the case of compound 6 the decrease amounts only to 45 to 50%, and the maximum is reached on the 4th day.
*mitosis index=number of dividing cells/1000 tumour cells

[4] = tested on: Ehrlich ascites carcinoma; assay: Duration of activity: total cell number in Ehrlich ascites carcinoma; assay type: in vivo, Mice; conditions: i.p. on the 6th day after transplantation, equitoxic doses
Description: as §5

L-120 leukemia = assay: Antitumour activity, L-1210 leukemia (Table 2); assay type: in vivo, BDF1 mice; conditions: for Increase in life span / Recovery (90 day survival): from the 2nd day; for Recovery (90 day survival): animals recovered/treated
Description: as §1, §2
(§6) The ascites and leukemia-type tumours were evaluated with the exception of the Rausher leukemia by the increase of the life span and by complete recovery. [formula]
as §4

Ehrlich acites carcinoma = assay: Antitumour activity, Ehrlich ascites carcinoma (Table 2); assay type: in vivo, CFLP mice; conditions: from the 2nd day; for Recovery (90 day survival): animals recovered/treated
Description: as §1, §2, §6, §4

S-180 s.c. sarcoma = assay: Antitumour activity, S-180 s.c. sarcoma, tumour weight (Table 3); assay type: in vivo, CFLP mice; conditions: from the 2nd day
Description: as §1, §2, §3

NK/Ly ascites lymphoma = assay: Antitumour activity, NK/Ly ascites lymphoma (Table 2); assay type: in vivo, CFLP mice; conditions: from the 2nd day; for Recovery (90 day survival): animals recovered/treated
Description: as §1, §2, §6, §4

P-388 leukemia = assay: Antitumour activity, P-388 leukemia (Table 2); assay type: in vivo, BDF1 mice; conditions: from the 2nd day; for Recovery (90 day survival): animals recovered/treated
Description: as §1, §2, §6, §4

[5] = tested on: Ehrlich ascites carcinoma; assay: Way of activity: thymidine index (3H-thymidine incorporation into DNS) in Ehrlich ascites carcinoma; assay type: in vivo, Mice; conditions: i.p. on 6th day, equitoxic doses
Description: as §5
**thymidine index=^3 H-thymidine incorporation into the DNS of the tumour cell.

[6] = ip, i.p., read-out: LD50 value i.p.
[7] = po, p.o., read-out: LD50 value p.o.

Row | SMILES | LD50 at 504 h [1, 6] [mg/kg] | LD50 at 504 h [1, 7] [mg/kg] | Inhibition (tumour weight) (Yoshida s.c. sarcoma; 3 mg./kg. 4× p.o.) [%] | Inhibition (tumour weight) (Yoshida s.c. sarcoma; 10 mg./kg. 4× i.p.) [%] | Inhibition (spleen weight) (Rausher leukemia; 10.0 mg./kg. 4× i.p.) [%] | Inhibition (spleen weight) (Rausher leukemia; 10.0 mg./kg. 4× p.o.) [%] | Inhibition (tumour weight) (Harding-Passey melanoma; 10.0 mg./kg. 9× p.o.) [%] | Recovery (90 day survival) [2] | Duration of inhibition of the increase of the total cell number [4] [days] | Increase in life span (L-120 leukemia; 3.0 mg./kg. 4× i.p.) [%] | Recovery (90 day survival) (L-120 leukemia; 3.0 mg./kg. 4× i.p.) | Increase in life span (L-120 leukemia; 10.0 mg./kg. 4× i.p.) [%] | Recovery (90 day survival) (L-120 leukemia; 10.0 mg./kg. 4× i.p.) | Increase in life span (Ehrlich acites carcinoma; 1.0 mg./kg. 5× i.p.) [%] | Recovery (90 day survival) (Ehrlich acites carcinoma; 1.0 mg./kg. 5× i.p.) | Inhibition (tumour weight) (S-180 s.c. sarcoma; 10.0 mg./kg. 5× i.p.) [%] | Recovery (90 day survival) (NK/Ly ascites lymphoma; 0.3 mg./kg. 4× i.p.) | Inhibition (tumour weight) (Harding-Passey melanoma; 3.0 mg./kg. 9× i.p.) [%] | Increase in life span (L-120 leukemia; 10.0 mg./kg. 4× p.o.) [%] | Recovery (90 day survival) (L-120 leukemia; 10.0 mg./kg. 4× p.o.) | other results
1 | O=NN(CCCl)C(=O)NC[C@@H](O)[C@H](O)CN(N=O)C(=O)NCCCl (racemic) [Compound 4, 1-[3-(2-chloroethyl)-3-nitrosoureido]-4-[3-(2-chloroethyl)-1-nitrosoureido]-1,4-dideoxy-D,L-threitol] | 80 | 130 | 50 | 82 | 100 | 100 | – | – | – | – | – | – | – | – | – | – | – | – | – | – | –
2 | O=NN(CCCl)C(=O)NC[C@@H](O)[C@H](O)CNC(=O)N(CCCl)N=O (racemic) [Compound 5, 1,4-bis[3-(2-chloroethyl)-3-nitrosoureido]-1,4-dideoxy-D,L-threitol] | 40 | 75 | 62 | – | – | 100 | – | – | – | – | – | – | – | – | – | – | – | – | – | – | Inhibition (tumour weight) (Yoshida s.c. sarcoma; 10 mg./kg. 2× p.o.): 99%; Inhibition (spleen weight) (Rausher leukemia; 3.0 mg./kg. 4× i.p.): 75%
3 | O=NN(CCCl)C(=O)NC[C@@H](O)[C@@H](O)[C@H](O)[C@H](O)CNC(=O)N(CCCl)N=O [Compound 2, 1,6-bis[3-(3-chloroethyl)-N-nitrosoureido]-1,6-dideoxy-D-mannitol] | 110 | 250 | – | 84 | 86 | – | 59 | 4/7 | 35 | 158 | 3/10 | 140 | 8/10 | 96 | 4/7 | 56 | 6/7 | – | – | – | Inhibition (tumour weight) (Harding-Passey melanoma; 10.0 mg./kg. 9× i.p.): 42%; Decrease of the mitosis-index ([3]; in 24 hours): 90%; Increase in life span (L-120 leukemia; 1.0 mg./kg. 4× i.p.): 58%; Recovery (90 day survival) (L-120 leukemia; 1.0 mg./kg. 4× i.p.): 0/10; Inhibition (tumour weight) (Yoshida s.c. sarcoma; 30 mg./kg. 4× p.o.): 75%; Inhibition (tumour weight) (S-180 s.c. sarcoma; 30.0 mg./kg. 5× p.o.): 51%; Increase in life span (P-388 leukemia; 10.0 mg./kg. 4× i.p.): 131%; Recovery (90 day survival) (P-388 leukemia; 10.0 mg./kg. 4× i.p.): 0/8; Decrease of the thymidine index ([5]; in 24 hours): 90%
4 | O=NN(CCCl)C(=O)N[C@H]1C[C@@H](NC(=O)N(CCCl)N=O)[C@H](O)[C@@H](O)[C@@H]1O [Compound 3, 1,3-bis[3-(2-chloroethyl)-N-nitriosoureido]-1,2,3-trideoxyscylloinositol] | 40 | 100 | – | 86 | – | – | 38 | – | – | – | – | – | – | 46 | 2/7 | – | – | 54 | 61 | 1/7 | Increase in life span (L-120 leukemia; 15.0 mg./kg. 1× i.p.): 180%; Recovery (90 day survival) (L-120 leukemia; 15.0 mg./kg. 1× i.p.): 5/8; Recovery (90 day survival) (NK/Ly ascites lymphoma; 0.1 mg./kg. 4× (route not given)): 7/7; Increase in life span (NK/Ly ascites lymphoma; 10.0 mg./kg. 4× p.o.): 61%; Recovery (90 day survival) (NK/Ly ascites lymphoma; 10.0 mg./kg. 4× p.o.): 1/7; Inhibition (spleen weight) (Rausher leukemia; 10.0 mg./kg. 6× i.p.): 100%; Increase in life span (P-388 leukemia; 3.0 mg./kg. 4× i.p.): 101%; Recovery (90 day survival) (P-388 leukemia; 3.0 mg./kg. 4× i.p.): 0/8
5 | O=NN(CCCl)C(=O)NCCCl [Compound 6, 1,3-bis(2-chloroethyl)-1-nitrosourea, reference compound] | 36 | 40 | 45 | 95 | – | – | – | 0/7 | 17 | 40 | 0/8 | 405 | 6/7 | – | – | 65 | 0/7 | 64 | 106 | 1/8 | Inhibition (tumour weight) (Harding-Passey melanoma; 3.0 mg./kg. 9× p.o.): 71%; Cure of Yoshida subcutaneous sarcoma, in words ([2]; single dose on the 6th day): inactive; Day on which the maximum decrease of the mitosis-index is reached [3]: 4 days; Increase in life span (L-120 leukemia; 24.0 mg./kg. 1× p.o.): 48%; Recovery (90 day survival) (L-120 leukemia; 24.0 mg./kg. 1× p.o.): 0/8; Activity on L-1210 leukemia on oral application, in words (L-120 leukemia; oral): only an unsignificant oral activity; Inhibition (tumour weight) (Yoshida s.c. sarcoma; 10 mg./kg. 4× p.o.): 100%; Increase in life span (Ehrlich acites carcinoma; 3.0 mg./kg. 5× i.p.): 60%; Recovery (90 day survival) (Ehrlich acites carcinoma; 3.0 mg./kg. 5× i.p.): 1/6; Inhibition (tumour weight) (S-180 s.c. sarcoma; 10.0 mg./kg. 5× p.o.): 32%; Recovery (90 day survival) (NK/Ly ascites lymphoma; 1.0 mg./kg. 4× i.p.): 5/7; Recovery (90 day survival) (NK/Ly ascites lymphoma; 3.0 mg./kg. 4× i.p.): 7/7; Inhibition (spleen weight) (Rausher leukemia; 10.0 mg./kg. 6× i.p.): 97%; Increase in life span (P-388 leukemia; 3.0 mg./kg. 4× i.p.): 51%; Recovery (90 day survival) (P-388 leukemia; 3.0 mg./kg. 4× i.p.): 0/8; Day on which the maximum decrease of the thymidine index is reached [5]: 4 days
